Laboratory results taken from patent US10758534B2 (Vertex Pharmaceuticals Incorporated, priority 2014, dated 2020).

Target: T1, F508del (Homo sapiens, UniProt P13569, DEL508-508)
T1 construct: expressed in transfected cells
Assay: Protocol 2: FRET membrane potential optical assay (VIPR), identification of correction compounds
Type: cell-based
Settings: Table 3; compounds of Table 1 as modulators of CFTR activity; protocol not stated
Summary of the method: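 Corrector readout: membrane-potential FRET (CC2-DMPE donor, DiSBAC2(3) acceptor) on VIPR II after Cl⁻-free gluconate bath with 10 μM forskolin and 20 μM genistein. Before this, F508del-expressing NIH3T3 cells were exposed to test compound for 16 h at 37 °C without serum; 27 °C incubation served as temperature-correction control.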

T1 sequence (P13569 with tags, fused parts or gaps DEL508-508): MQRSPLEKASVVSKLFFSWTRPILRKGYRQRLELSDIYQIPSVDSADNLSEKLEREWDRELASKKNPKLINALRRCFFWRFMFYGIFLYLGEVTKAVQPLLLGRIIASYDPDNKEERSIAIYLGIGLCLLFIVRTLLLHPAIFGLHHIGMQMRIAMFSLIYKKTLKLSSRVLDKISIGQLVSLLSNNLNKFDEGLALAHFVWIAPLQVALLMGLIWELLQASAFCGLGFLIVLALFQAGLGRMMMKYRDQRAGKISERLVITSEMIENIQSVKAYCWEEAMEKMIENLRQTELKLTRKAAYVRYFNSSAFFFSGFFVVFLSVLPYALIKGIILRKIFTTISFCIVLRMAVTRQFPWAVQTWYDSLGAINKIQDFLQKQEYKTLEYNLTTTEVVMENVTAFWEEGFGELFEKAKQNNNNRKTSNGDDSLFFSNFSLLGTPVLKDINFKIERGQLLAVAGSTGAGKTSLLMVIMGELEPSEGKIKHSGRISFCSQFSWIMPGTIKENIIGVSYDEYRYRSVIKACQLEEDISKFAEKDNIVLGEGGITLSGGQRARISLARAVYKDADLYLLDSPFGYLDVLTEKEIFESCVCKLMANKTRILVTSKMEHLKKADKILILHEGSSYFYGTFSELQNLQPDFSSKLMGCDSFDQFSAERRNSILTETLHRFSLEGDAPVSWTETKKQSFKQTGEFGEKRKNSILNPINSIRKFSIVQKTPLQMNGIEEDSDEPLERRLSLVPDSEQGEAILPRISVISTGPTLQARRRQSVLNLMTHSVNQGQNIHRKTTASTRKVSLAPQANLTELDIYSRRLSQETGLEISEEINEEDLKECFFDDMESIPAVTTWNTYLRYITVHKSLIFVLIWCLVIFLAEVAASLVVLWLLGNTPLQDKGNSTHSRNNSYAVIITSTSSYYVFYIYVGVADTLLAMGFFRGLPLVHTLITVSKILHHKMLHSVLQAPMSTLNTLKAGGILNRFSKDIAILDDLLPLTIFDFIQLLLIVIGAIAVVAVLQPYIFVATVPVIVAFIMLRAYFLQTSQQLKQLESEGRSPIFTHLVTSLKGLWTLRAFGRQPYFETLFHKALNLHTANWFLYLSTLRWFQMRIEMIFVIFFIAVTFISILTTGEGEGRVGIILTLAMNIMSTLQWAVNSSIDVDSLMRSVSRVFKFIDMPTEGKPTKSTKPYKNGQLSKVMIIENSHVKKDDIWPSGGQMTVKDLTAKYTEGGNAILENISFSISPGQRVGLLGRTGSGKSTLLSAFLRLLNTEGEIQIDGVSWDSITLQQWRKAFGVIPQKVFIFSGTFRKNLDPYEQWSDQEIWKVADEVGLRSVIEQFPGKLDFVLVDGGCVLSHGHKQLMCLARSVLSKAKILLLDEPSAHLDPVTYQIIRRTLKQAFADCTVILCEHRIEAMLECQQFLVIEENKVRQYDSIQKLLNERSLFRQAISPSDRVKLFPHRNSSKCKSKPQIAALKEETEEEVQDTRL

| EC30 | Structure (SMILES) |
| --- | --- |
| +++ (“+++” means <3 uM) | Cc1cc(C)c(CN2Cc3ccccc3C2(C)C(=O)NS(=O)(=O)c2nccnc2N)c(C)c1 (centres unmarked) [Compound 480, N-(3-aminopyrazin-2-yl)sulfonyl-1-methyl-2-[(2,4,6-trimethylphenyl)methyl]isoindoline-1-carboxamide] |
| +++ (“+++” means <3 uM) | Cc1cc(C)c(Oc2nc(C)ccc2C(=O)NS(=O)(=O)c2cccc(NC(C)C)n2)c(C)c1 [Compound 482, N-[[6-(isopropylamino)-2-pyridyl]sulfonyl]-6-methyl-2-(2,4,6-trimethylphenoxy)pyridine-3-carboxamide] |
| +++ (“+++” means <3 uM) | COc1cccc(-c2ccc(C(=O)NS(=O)(=O)c3cccc(N)n3)c(Oc3c(C)cc(C)cc3C)n2)c1OC [Compound 485, N-[(6-amino-2-pyridyl)sulfonyl]-6-(2,3-dimethoxyphenyl)-2-(2,4,6-trimethylphenoxy)pyridine-3-carboxamide] |
| ++ (“++” means between 3 uM and 10 uM) | Cc1cc(C(=O)NS(=O)(=O)c2cccc(N)n2)c(N2[C@H](C)CC[C@@H]2C)nc1-c1ccc(OC(C)C)nc1 [Compound 486, N-[(6-amino-2-pyridyl)sulfonyl]-2-[(2R,5S)-2,5-dimethylpyrrolidin-1-yl]-6-(6-isopropoxy-3-pyridyl)-5-methyl-pyridine-3-carboxamide] |
| ++ (“++” means between 3 uM and 10 uM) | CC(C)Oc1cc(F)cc(-c2ccc(C(=O)NS(=O)(=O)c3ccc[nH]c3=O)c(N3[C@H](C)CC[C@@H]3C)n2)c1 [Compound 487, 2-[(2S,5R)-2,5-dimethylpyrrolidin-1-yl]-6-(3-fluoro-5-isopropoxy-phenyl)-N-[(2-oxo-1H-pyridin-3-yl)sulfonyl]pyridine-3-carboxamide] |
| +++ (“+++” means <3 uM) | CC(C)Oc1ccc(-c2ccc(C(=O)NS(=O)(=O)c3cccc(N)n3)c(N3CCCC(c4ccccn4)C3)n2)cn1 (centres unmarked) [Compound 489, N-[(6-amino-2-pyridyl)sulfonyl]-6-(6-isopropoxy-3-pyridyl)-2-[3-(2-pyridyl)-1-piperidyl]pyridine-3-carboxamide] |
| +++ (“+++” means <3 uM) | CCCOc1cc(-c2ccc(C(=O)NS(=O)(=O)c3cccc(N)n3)c(N3CC(C)CC3(C)C)n2)ccn1 (centres unmarked) [Compound 491, N-[(6-amino-2-pyridyl)sulfonyl]-6-(2-propoxy-4-pyridyl)-2-(2,2,4-trimethylpyrrolidin-1-yl)pyridine-3-carboxamide] |
| +++ (“+++” means <3 uM) | Cc1cc(C)c(Oc2nc(-c3ccc(OC(C)C)cc3)ccc2C(=O)NS(=O)(=O)c2ccc[nH]c2=O)c(C)c1 [Compound 494, 6-(4-isopropoxyphenyl)-N-[(2-oxo-1H-pyridin-3-yl)sulfonyl]-2-(2,4,6-trimethylphenoxy)pyridine-3-carboxamide] |
| +++ (“+++” means <3 uM) | CC(C)Oc1ccc(-c2ccc(C(=O)NS(=O)(=O)c3ccc[nH]c3=O)c(N3C[C@@H](C)CC3(C)C)n2)cn1 [Compound 497, 6-(6-isopropoxy-3-pyridyl)-N-[(2-oxo-1H-pyridin-3-yl)sulfonyl]-2-[(4S)-2,2,4-trimethylpyrrolidin-1-yl]pyridine-3-carboxamide] |
| ++ (“++” means between 3 uM and 10 uM) | COc1ncc(-c2ccc(C(=O)NS(=O)(=O)c3cccc(N)n3)c(Oc3c(C)cc(C)cc3C)n2)c(OC)n1 [Compound 499, N-[(6-amino-2-pyridyl)sulfonyl]-6-(2,4-dimethoxypyrimidin-5-yl)-2-(2,4,6-trimethylphenoxy)pyridine-3-carboxamide] |
| +++ (“+++” means <3 uM) | CCCN(CC1CC1)c1nc(-c2ccc(OC(C)C)nc2)ccc1C(=O)NS(=O)(=O)c1cccc(N)n1 [Compound 500, N-[(6-amino-2-pyridyl)sulfonyl]-2-[cyclopropylmethyl(propyl)amino]-6-(6-isopropoxy-3-pyridyl)pyridine-3-carboxamide] |

| Structure (SMILES) | EC30 |
| --- | --- |
| CC(C)COc1cc(F)cc(-c2ccc(C(=O)NS(=O)(=O)c3ccc[nH]c3=O)c(N3CCC[C@@H](c4ccccc4)C3)n2)c1 [Compound 481, 6-(3-fluoro-5-isobutoxy-phenyl)-N-[(2-oxo-1H-pyridin-3-yl)sulfonyl]-2-[(3S)-3-phenyl-1-piperidyl]pyridine-3-carboxamide] | +++ (“+++” means <3 uM) |
| Cc1cc(C(=O)NS(=O)(=O)c2cccc(N)n2)c(N2[C@H](C)CC[C@@H]2C)nc1-c1cc(F)cc(OCC(C)C)c1 [Compound 483, N-[(6-amino-2-pyridyl)sulfonyl]-2-[(2R,5S)-2,5-dimethylpyrrolidin-1-yl]-6-(3-fluoro-5-isobutoxy-phenyl)-5-methyl-pyridine-3-carboxamide] | +++ (“+++” means <3 uM) |
| CC(C)COc1cc(F)cc(-c2ccc(C(=O)NS(=O)(=O)c3cccc(N)n3)c(N3CC(c4ccccc4)CC3C)n2)c1 (centres unmarked) [Compound 488, N-[(6-amino-2-pyridyl)sulfonyl]-6-(3-fluoro-5-isobutoxy-phenyl)-2-(2-methyl-4-phenyl-pyrrolidin-1-yl)pyridine-3-carboxamide] | +++ (“+++” means <3 uM) |
| CC(C)COc1cc(F)cc(-c2ccc(C(=O)NS(=O)(=O)c3cccc(N)n3)c(N3CC4CC4C3C(F)(F)F)n2)c1 (centres unmarked) [Compound 490, N-[(6-amino-2-pyridyl)sulfonyl]-6-(3-fluoro-5-isobutoxy-phenyl)-2-[4-(trifluoromethyl)-3-azabicyclo[3.1.0]hexan-3-yl]pyridine-3-carboxamide] | +++ (“+++” means <3 uM) |
| CC(C)COc1cc(F)cc(-c2ccc(C(=O)NS(=O)(=O)c3ccc[nH]c3=O)c(N3C[C@@H](C)CC3(C)C)n2)c1 [Compound 492, 6-(3-fluoro-5-isobutoxy-phenyl)-N-[(2-oxo-1H-pyridin-3-yl)sulfonyl]-2-[(4S)-2,2,4-trimethylpyrrolidin-1-yl]pyridine-3-carboxamide] | +++ (“+++” means <3 uM) |
| CCC(C)(C)C1CCCN1c1nc(-c2cc(F)cc(OCC(C)C)c2)ccc1C(=O)NS(=O)(=O)c1cccc(N)n1 (centres unmarked) [Compound 493, N-[(6-amino-2-pyridyl)sulfonyl]-2-[2-(1,1-dimethylpropyl)pyrrolidin-1-yl]-6-(3-fluoro-5-isobutoxy-phenyl)pyridine-3-carboxamide] | +++ (“+++” means <3 uM) |
| C[C@@H]1CC[C@H](C)N1c1nc(-c2cncc(OC3CCCC3)c2)ccc1C(=O)NS(=O)(=O)c1cccc(N)n1 [Compound 495, N-[(6-amino-2-pyridyl)sulfonyl]-6-[5-(cyclopentoxy)-3-pyridyl]-2-[(2S,5R)-2,5-dimethylpyrrolidin-1-yl]pyridine-3-carboxamide] | ++ (“++” means between 3 uM and 10 uM) |
| CC(C)COc1cc(F)cc(-c2ccc(C(=O)NS(=O)(=O)c3cccc(N)n3)c(N3C(C)CCC3(C)C)n2)c1 (centres unmarked) [Compound 496, N-[(6-amino-2-pyridyl)sulfonyl]-6-(3-fluoro-5-isobutoxy-phenyl)-2-(2,2,5-trimethylpyrrolidin-1-yl)pyridine-3-carboxamide] | +++ (“+++” means <3 uM) |
| CC(C)COc1cc(F)cc(-c2ccc(C(=O)NS(=O)(=O)c3ccn[nH]3)c(N3CCCC(C(C)C)C3)n2)c1 (centres unmarked) [Compound 498, 6-(3-fluoro-5-isobutoxy-phenyl)-2-(3-isopropyl-1-piperidyl)-N-(1H-pyrazol-5-ylsulfonyl)pyridine-3-carboxamide] | +++ (“+++” means <3 uM) |
